Where a name gives a salt, the structure may show the parent alone.

This assay has as its system spontaneously hypertensive rats. The experiment in a line: Spontaneously Hypertensive Rat (SHR) test. In kind it is in vivo. The note with it: oral dose 30 mg/kg. From the text:
The activity of compounds of formula (I) for the treatment of hypertension may be determined using the Spontaneously Hypertensive Rat (SHR) test as described below.
In this test, the arterial pressure of adult spontaneously hypertensive rats (Charles River) is monitored directly via an aortic cannula. The SH rats are anesthetized with an inhalation anesthetic (ether). The left carotid artery is isolated and cannulated. The tip of the cannula is advanced to the aorta and the cannula is exteriorized behind the neck at the level of the scapula. Animals are placed in individual cages and allowed to recover from the anesthetic and are kept unrestrained. The arterial cannula is connected to the pressure transducer which is attached to the recorder. The test compounds are administered to at least 3 rats at doses selected in the range of 0.1 to 100 mg/kg of body weight by intraperitoneal (i.p.) or oral (p.o.) routes of administration. The arterial pressure and heart rate are monitored for a minimum of 24 hours. A test compound is considered to be active as an antihypertensive agent if the mean arterial pressure (MAP) indicates a fall of >15 mm of Hg. Each animal serves as its own control.

As to `CC(C)(C)NCC(O)COc1ccccc1C#Cc1cccnc1` (stereo not drawn) [Example 2, 1-[(1,1-Dimethylethyl)amino]-3-[2-(3-pyridinylethynyl)phenoxy]-2-propanol Hydrochloride Hydrate (4:4:1)], the “duration of blood pressure reduction” value came to 10.5 h, the heart rate change is on record as -41 beats/min and the “reduction of hypertensive blood pressure (mean arterial pressure)” value is reported as -54 mm Hg.

As to `CC(C)(C)NCC(O)COc1ccccc1C#Cc1ccncc1.O=C(O)/C=C/C(=O)O` (stereo not drawn) [Example 1, 1-[(1,1-Dimethylethyl)amino]-3-[2-(4-pyridinylethynyl)phenoxy]-2-propanol (E)-2-Butenedioate], the “duration of blood pressure reduction” value is 7.5 h, the heart rate change was -87 beats/min and the “reduction of hypertensive blood pressure (mean arterial pressure)” value is reported as -46 mm Hg.

Source of the values: US4663334A, “Heteroaromatic acetylenes useful as antihypertensive agents” (McNeilab, Inc., priority 1985, dated 1987).
